Publication PMC8609307 (2021)

Columns and labels:
[1] = system: EC-88 G37C, Cy3-Cy5 dual-labeled (RNA, riboswitch, azido-uridine analog at 14) GUUCUCAACGGGGUGCCACGCGUACGCGUGCGCUGACAAAAUACCCGUCGAACCUGAUCCGGAUAACGCCGGCGAAGGGAUUUGAGGC; assay: smFRET; settings: 20 mM MgCl2, 20 mM NaCl; tested at 1 mM TPP
[2] = system: EC-83 nascent transcript (RNA, riboswitch) GUUCUCAACGGGGUGCCACGCGUACGCGUGCGCUGAGAAAAUACCCGUCGAACCUGAUCCGGAUAACGCCGGCGAAGGGAUUU; assay: RNase H cleavage protection; settings: 20 mM MgCl2, 20 mM NaCl (transcription buffer); stalled at pause site 83; Kswitch plot Figure 2D
[3] = system: EC-88 WT, Cy3-Cy5 dual-labeled (RNA, riboswitch, azido-uridine analog at 14) GUUCUCAACGGGGUGCCACGCGUACGCGUGCGCUGAGAAAAUACCCGUCGAACCUGAUCCGGAUAACGCCGGCGAAGGGAUUUGAGGC; assay: smFRET; settings: 20 mM MgCl2, 20 mM NaCl; 1 mM TPP
[4] = system: 117-nt transcript without RNAP, Cy3-Cy5 dual-labeled (RNA, riboswitch, azido-uridine analog at 14) GUUCUCAACGGGGUGCCACGCGUACGCGUGCGCUGAGAAAAUACCCGUCGAACCUGAUCCGGAUAACGCCGGCGAAGGGAUUUGAGGCUCCUUCUCAAGUCCUUUGCCACUCUUUUU; assay: smFRET; settings: 20 mM MgCl2, 20 mM NaCl; tested at 1 mM TPP; no RNAP
[5] = system: EC-136, Cy3-Cy5 dual-labeled (RNA, riboswitch, azido-uridine analog at 14) GUUCUCAACGGGGUGCCACGCGUACGCGUGCGCUGAGAAAAUACCCGUCGAACCUGAUCCGGAUAACGCCGGCGAAGGGAUUUGAGGCUCCUUCUCAAGUCCUUUGCCACUCUUUUUUGAGGUGCAAAGUGUUAAA; assay: smFRET; settings: 20 mM MgCl2, 20 mM NaCl; poor folding at 1 mM TPP; none at 10 µM TPP
[6] = system: EC-104, Cy3-Cy5 dual-labeled (RNA, riboswitch, azido-uridine analog at 14) GUUCUCAACGGGGUGCCACGCGUACGCGUGCGCUGAGAAAAUACCCGUCGAACCUGAUCCGGAUAACGCCGGCGAAGGGAUUUGAGGCUCCUUCUCAAGUCCUU; assay: smFRET; settings: 20 mM MgCl2, 20 mM NaCl; 1 mM TPP
[7] = system: EC-28, Cy3-Cy5 dual-labeled (RNA, riboswitch, azido-uridine analog at 14) GUUCUCAACGGGGUGCCACGCGUACGCG; assay: smFRET; settings: 20 mM MgCl2, 20 mM NaCl; tested at 1 mM TPP
[8] = system: EC-117, Cy3-Cy5 dual-labeled (RNA, riboswitch, azido-uridine analog at 14) GUUCUCAACGGGGUGCCACGCGUACGCGUGCGCUGAGAAAAUACCCGUCGAACCUGAUCCGGAUAACGCCGGCGAAGGGAUUUGAGGCUCCUUCUCAAGUCCUUUGCCACUCUUUUU; assay: smFRET; settings: 20 mM MgCl2, 20 mM NaCl; 1 mM and 10 µM TPP

With `Cc1ncc(C[n+]2csc(CCOP(=O)(O)OP(=O)(O)O)c2C)c(N)n1` as the molecule, how does the binding [1] read?
The binding was “no”.

What about the binding [2] of the same molecule?
Its binding is “no”.

What about the binding [3] of the same molecule?
Its binding is “yes”.

And the binding [4]?
Its binding is “no”.

What about the binding [5] of the same molecule?
The binding was “weak”.

What about the binding [6] of the same molecule?
The binding was “yes”.

And the binding [7]?
Its binding is “no”.

What about the binding [8] of the same molecule?
Its binding is “yes”.
